# Literature values, collected in patent US6986763B2, “Methods and compositions usable in cataract surgery” (PHACOTREAT AB, priority 2001, dated 2006).
# Test system: lens epithelial cells
# Conditions: in vitro
row,Compound,inhibiting lens epithelial cells proliferation
1,CO[C@@]12[C@H](COC(N)=O)C3=C(C(=O)C(C)=C(N)C3=O)N1C[C@@H]1N[C@@H]12 [mitomycin],effective
2,CN(Cc1cnc2nc(N)nc(N)c2n1)c1ccc(C(=O)N[C@@H](CCC(=O)O)C(=O)O)cc1 [methotrexate],effective
3,O=c1[nH]cc(F)c(=O)[nH]1 [5-fluorouracil],effective
4,COc1cc2c(c(OC)c1OC)-c1ccc(OC)c(=O)cc1[C@@H](NC(C)=O)CC2 [colchicines],effective
5,COc1cccc2c1C(=O)c1c(O)c3c(c(O)c1C2=O)C[C@@](O)(C(=O)CO)C[C@@H]3O[C@H]1C[C@H](N)[C@H](O)[C@H](C)O1 [doxorubicin],effective
6,COc1cccc2c1C(=O)c1c(O)c3c(c(O)c1C2=O)C[C@@](O)(C(C)=O)C[C@@H]3O[C@H]1C[C@H](N)[C@H](O)[C@H](C)O1 [daunomycin/daunorubicin],effective
7,CC(=O)O[C@H]1C(=O)[C@@]2(C)[C@H]([C@H](OC(=O)c3ccccc3)[C@]3(O)C[C@H](OC(=O)[C@H](O)[C@@H](NC(=O)c4ccccc4)c4ccccc4)C(C)=C1C3(C)C)[C@]1(OC(C)=O)CO[C@@H]1C[C@@H]2O [taxol],effective

# Test system: lens epithelial cells
# Conditions: cadaver eyes; 2% solution in irrigation solution
row,Compound,damage to the zonules
1,trypsin,the zonules were damaged

# Same assay, conditions: cadaver eyes; agent in irrigation solution
row,Compound,separation of lens epithelial cells
1,trypsin,lens epithelial cells were stripped in places
2,"O=C(O)CN(CCN(CC(=O)O)CC(=O)O)CC(=O)O [EDTA, Ethylenediamine tetraacetic acid]",the anterior lens epithelial cells could be separated
